Results reported in patent US20260138969A1 (Korea Research Institute of Chemical Technology, priority 2023, published 2026).

Legend:
[1] = molecular target: T1, recombinant human ASK1 protein (Homo sapiens, UniProt Q99683); assay: Evaluation of ASK1 inhibition activity ([gamma-33P]-ATP, scintillation counting); format: biochemical; conditions: for remaining activity at 0.5 µM: activity of group without compound set at 100%, read-out: Remaining kinase activity (%) at 0.5 uM
T1 sequence (Q99683 1-1374): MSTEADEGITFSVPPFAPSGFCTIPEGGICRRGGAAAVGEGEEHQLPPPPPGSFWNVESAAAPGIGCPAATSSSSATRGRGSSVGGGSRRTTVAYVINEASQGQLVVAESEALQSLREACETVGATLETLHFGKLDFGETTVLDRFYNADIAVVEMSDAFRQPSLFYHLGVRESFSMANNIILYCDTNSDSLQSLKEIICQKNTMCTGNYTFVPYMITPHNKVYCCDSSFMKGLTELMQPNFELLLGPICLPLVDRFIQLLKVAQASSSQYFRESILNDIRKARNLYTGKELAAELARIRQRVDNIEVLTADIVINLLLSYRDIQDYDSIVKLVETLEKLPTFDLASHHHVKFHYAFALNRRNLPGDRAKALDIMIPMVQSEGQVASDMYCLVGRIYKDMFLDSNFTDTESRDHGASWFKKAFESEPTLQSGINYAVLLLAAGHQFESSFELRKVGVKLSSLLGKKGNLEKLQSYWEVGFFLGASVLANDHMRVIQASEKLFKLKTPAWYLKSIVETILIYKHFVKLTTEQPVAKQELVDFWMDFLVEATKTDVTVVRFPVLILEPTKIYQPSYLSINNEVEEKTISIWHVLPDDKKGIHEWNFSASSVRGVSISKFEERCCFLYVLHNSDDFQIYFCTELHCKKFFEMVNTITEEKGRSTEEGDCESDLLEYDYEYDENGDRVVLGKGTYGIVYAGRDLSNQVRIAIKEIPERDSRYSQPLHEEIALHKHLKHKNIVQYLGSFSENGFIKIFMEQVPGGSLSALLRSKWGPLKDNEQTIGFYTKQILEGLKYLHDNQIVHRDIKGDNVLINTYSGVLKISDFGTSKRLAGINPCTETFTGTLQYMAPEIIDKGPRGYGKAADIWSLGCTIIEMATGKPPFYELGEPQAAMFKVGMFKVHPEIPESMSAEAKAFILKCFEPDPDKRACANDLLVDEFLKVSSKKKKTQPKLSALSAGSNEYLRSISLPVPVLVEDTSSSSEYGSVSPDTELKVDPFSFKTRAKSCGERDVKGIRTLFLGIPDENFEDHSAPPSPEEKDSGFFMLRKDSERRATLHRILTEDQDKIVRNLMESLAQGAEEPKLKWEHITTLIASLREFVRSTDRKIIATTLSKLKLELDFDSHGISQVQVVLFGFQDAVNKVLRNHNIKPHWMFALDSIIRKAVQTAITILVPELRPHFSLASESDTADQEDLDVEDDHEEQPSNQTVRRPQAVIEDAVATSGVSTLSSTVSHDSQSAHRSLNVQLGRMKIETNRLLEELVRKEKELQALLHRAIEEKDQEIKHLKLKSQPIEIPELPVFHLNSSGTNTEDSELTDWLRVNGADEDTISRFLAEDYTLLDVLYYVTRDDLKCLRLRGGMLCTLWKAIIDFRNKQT
Procedure: The recombinant human ASK1 protein was initiated by adding a mixture of Mg/ATP to the reaction solution (8 mM MOPS PH 7.0, 0.2 mM EDTA, 0.33 mg/mL myelin basic protein, 10 mM Mg Acetate and [gamma-33P]-ATP), and the reaction was terminated by adding 0.5% phosphoric acid after 40 min at room temperature.

[2] = test system: SH-SY5Y cells; assay: Cytoprotective effects in MPP+-induced human neurons (CCK-8); format: cell-based; conditions: MPP+ 5 mM induced cytotoxicity, cell viability by CCK-8
Procedure: SH-SY5Y cells were purchased from ATCC and cultured at 37° C. and 5% CO2 in RPMI medium containing 10% FBS and 1% penicillin and streptomycin. MPP+ was purchased from Sigma Aldrich and treated with 5 mM to induce cytotoxicity.

[3] = test system: MPTP-induced PD mouse model; assay: MPTP-induced PD mouse model: dopamine by LC-MS/MS; format: in vivo; conditions: vs MPTP alone group
Procedure: Mice at 7 weeks of age were divided into 7 groups as shown in Table 9 below to generate an acute MPTP model and proceed with drug administration: control group+vehicle (G1), MPTP+vehicle (G2), MPTP+Nilotinib 40 mg/kg (G3), MPTP+Example 3 2 mg/kg (G4), MPTP+Example 3 10 mg/kg (G5), MPTP+Example 3 50 mg/kg (G6), and MPTP+Example 2 50 mg/kg (G7). The test drug was administered orally (PO) at 10 ml/kg once daily (QD) from Day 1 to Day 7. The acute MPTP model will be performed at 2-hour intervals in all groups except the control group. […] was administered as intraperitoneal (IP) injection for 4 doses. The control group was given the same amount of 0.9% saline. The Pole test was performed on day 4 (after training on day 2 and day 3). On day 7, all mice were euthanized, and their brains were harvested.
The amount of dopamine was measured by LC-MS/MS analysis using Agilent 1290 (LC) and SCIEX QTARP 6500+ (QQQ) for the striatum and substantia nigra of the extracted brain tissue.

Row | Compound | IC50 [1] [nM] | remaining activity at 0.5 µM [1] [%] | EC50 [2] [nM] | dopamine concentration in the striatum ([3]; 50 mg/kg PO QD) | dopamine concentration in the substantia nigra ([3]; 50 mg/kg PO QD) | dopamine concentration in the substantia nigra ([3]; 2 mg/kg PO QD) | dopamine concentration in the substantia nigra ([3]; 10 mg/kg PO QD)
1 | Cc1cc(F)c(C(=O)Nc2cccc(-n3nnc4c3CCC4)n2)cc1-n1cnc(C2CC2)c1 [Example 2, 5-(4-cyclopropyl-1H-imidazole-1-yl)-N-(6-(5,6-dihydrocyclopenta[d][1,2,3]triazole-1 (4H)-yl)pyridine-2-yl)-2-fluoro-4-methylbenzamide] | 37 | 2 | 64 | significantly increased | significantly increased | – | –
2 | Cc1cc(F)c(C(=O)Nc2cccc(-n3nnc4c3CCCC4)n2)cc1-n1cnc(C2CC2)c1 [Example 3, 5-(4-cyclopropyl-1H-imidazole-1-yl)-2-fluoro-4-methyl-N-(6-(4,5,6,7-tetrahydro-1H-benzo[d][1,2,3]triazole-1-yl)pyridine-2-yl)benzamide] | 73 | 7 | 23 | – | – | significantly increased | significantly increased
